These results are taken from ChEMBL document CHEMBL2321853, “Novel acylethanolamide derivatives that modulate body weight through enhancement of hypothalamic pro-opiomelanocortin (POMC) and/or decreased neuropeptide Y (NPY)” (J Med Chem, 2013).

Active and inactive are the calls of the source. The rule behind the calls is not given here.

Series [1] deals with Mus musculus. As to the kind of experiment: Antiobesity activity in C57BL/6 mouse assessed as change in glucose level in blood at 5 mg/kg, ip administered on day 1, 4, 5, 7, 17, 15, 19 measured on day 3 relative to control. The series is classed as functional. The note with it: route intraperitoneal.
For series [2], the system named is Mus musculus. Description: Antiobesity activity in Sabra mouse assessed as change in body weight at 1 mg/kg, ip administered on day 8, 12 and 43 measured on day 71 relative to control. The series is classed as functional. Conditions: route intraperitoneal.
The subject of series [3] is Mus musculus. As to the kind of experiment: Antiobesity activity in Sabra mouse assessed as change in body weight at 1 mg/kg, ip administered on day 8, 12 and 43 measured on day 5 relative to control. The format is functional. The note with it: route intraperitoneal.
Series [4] deals with Mus musculus. As to the kind of experiment: Antiobesity activity in Sabra mouse assessed as change in body weight at 1 mg/kg, ip administered on day 8, 9, 10, 11, 14, 18, 24 and 32 measured on day 4 relative to control. The format is functional. Conditions: route intraperitoneal.
Series [5] deals with Mus musculus. As to the kind of experiment: Hepatotoxicity in Sabra mouse assessed as coagulative necrosis changes at 1 mg/kg, ip administered on day 8, 9, 10, 11, 14, 18, 24 and 32 by hematoxylin and eosin staining-based histopathological analysis. The format is toxicity, organism-based. The note with it: in vivo. Details: dose 1 mg/kg, route intraperitoneal.
The next series concerns Hypothalamus. Description: Effect on POMC gene expression in Sabra mouse hypothalamus assessed as increase in mRNA level at 10 mg/kg, ip administered on day 6 to 10 measured on day 16 by RT-PCR analysis relative to control. The series is classed as functional. Conditions: route intraperitoneal.
The subject of series [6] is Mus musculus. As to the kind of experiment: Antiobesity activity in high fat diet fed C57BL/6 mouse assessed as reduction food consumption at 1 mg/kg, ip administered on day 3, 6, 8, 9, 10 measured after week 2 relative to control. Conditions: route intraperitoneal. The series is classed as functional. The arrangement: scale not given: the % may be the effect or the level left.

In series [7] the test system is Mus musculus. As to the kind of experiment: Increase in motor activity Sabra mouse at 1 mg/kg, ip administered on day 8, 9, 10, 11, 14, 18, 24 and 32 measured on day 14 by open field test. The format is functional, organism-based. Details: dose 1 mg/kg.
In series [8] the test system is Mus musculus. Description: Enhancement of cognitive function in Sabra mouse at 1 mg/kg, ip administered on day 6 to 10 by eight-arm maze test. Details: dose 1 mg/kg. The format is functional, organism-based.

Take `CCCCCCCC/C=C\CCCCCCCC(=O)N[C@H](CO)C(C)C`: the Activity with Mus musculus [1] is -2.7%; with Mus musculus [2], -11.4%; in the series on Mus musculus [3] it was 1.8%; in the series on Mus musculus [4], 0.5%; in the series with Mus musculus [5], “Non-toxic”; with Hypothalamus, 90%. Besides, in the series with Mus musculus [6], the Activity turned out to be 45%. The outcome in the series with Mus musculus [7] and in the series on Mus musculus [8] was Active.
